Assays:
[1] = Odour threshold by GC detection at the sniffing port (panel of 5 persons); conditions: mean of individual thresholds of 5 panelists
Experimental: For each compound the odour threshold value was determined by gas chromatograph (GC) detection. […] Each panelist (panel of 5 persons) smelled blind and pressed a button upon perceiving an odor. If the recorded time matched the retention time, the sample was further diluted. The last quantity detected at the correct retention time was the panelist's individual odor threshold. The final threshold value for a given test compound was obtained as the mean value of the individual threshold levels.
Further information of the technique described hereinabove may be found in N. Neuner-Jehle, F. Etzweiler. ‘Measuring of Odors’, in P. Müller. D. Lamparsky (Eds,). ‘Perfumes. Art, Science and Technology’, Elsevier Appl. Science Publ., London. 1991: pp. 153.

[2] = Vapour pressure by saturated headspace trapping and GC quantification; assay type: physicochemical; conditions: headspace concentration at constant 25° C., mean of three independent measurements
Experimental: For each compound the vapour pressure was determined via the following procedure: 500 mg of the test compound was added to a headspace container which was then scaled. The container was incubated at constant 25° C. until the compound reached equilibrium between the gas and the liquid phase. An exactly defined but variable volume between 0.5-1.0 L of this saturated headspace was trapped on a micro filter using Porapak Q as sorbent. After filter extraction with 30-100 μl methyl tert.-butyl ether), an aliquot of the extract was analyzed by gas chromatograph (GC). Quantification was performed by the external standard calibration method. The concentration in the original headspace was calculated (in terms of μg/l) from the headspace volume sucked through the micro filter and the aliquot of the filter extract injected into the gas chromatograph. The final headspace concentration value for a given test compound was obtained as the mean value of three independent measurements.
Further information of the technique described hereinabove may be found in the article of F. Etzweiler, E. Senn, N. Neuner-Jehle, Ber. Bunsen-Ges. Phys. Chem. 1984, 88, 578.

## C/C(=C\C(C)C)C(C)OC(C)(C)COC(=O)C1CC1 (centres unmarked) [(3″E)-2-(3,5-Dimethylhex-3-en-2-yloxy)-2-methylpropyl cyclopropanecarboxylate, reference compound]
[1]
  Odour Threshold: 5.9 ng/L
[2]
  Vapour Pressure: 27.57 µg/L

## CC/C(=C\C(C)C)C(C)OC(C)(C)COC(=O)C1CCC1 (centres unmarked) [Example 4, (3″E)-2′-(3″-Ethyl-5″-methylhex-3″-en-2″-yloxy)-2′-methylpropyl cyclobutanecarboxylate]
[2]
  Vapour Pressure: 4.76 µg/L

## CC/C(=C\C(C)C)C(C)OC(C)(C)COC(=O)C1CC1 (centres unmarked) [Example 2, (3″E)-2′-(3″-Ethyl-5″-methylhex-3″-en-2″yloxy)-2′-methylpropyl cyclopropanecarboxylate]
[1]
  Odour Threshold: 2.2 ng/L
[2]
  Vapour Pressure: 10.61 µg/L

Source: patent US20130065969A9, “Odour Compounds” (priority 2009, published 2013)
